Data taken from patent publication US9351955B2, “Compounds and pharmaceutical compositions thereof for the treatment of cystic fibrosis” (Galapagos NV, priority 2013, dated 2016).

Columns and labels:
[1] = biological target: T1, CFTR G551D mutant (Homo sapiens, UniProt P13569, G551D); assay: YFP-halide influx assay for the CFTR-G551D mutation (HEK293 cells); type: cell-based; conditions: HEK293 cells expressing CFTR G551D and YFP reporter; forskolin 10.67 μM; read-out: EC50 measured by YFP-halide influx assay for the CFTR-G551D
T1 construct: expressed in transfected cells; host or cells: HEK293 (reverse transfection with plasmids)
Source text: 6.3. YFP-Halide Influx Assay for the CFTR-G551D Mutation
The YFP halide influx assay measures the functionality of the cystic fibrosis Transmembrane Conductance regulator (CFTR) channels. The assay is used to evaluate the capacity of compounds to increase the channel opening of existing mutant CFTR channels in the membrane. It makes use of the observation that the yellow fluorescent protein (YFP) variant YFP H148Q, I152L, F47L has its fluorescence substantially quenched by halide ions like Cl^− and I^−. (Galietta et al., 2001)
For this purpose, HEK293-cells are seeded in 96 well plates. During seeding, the cells are reverse-transfected with plasmid vectors that direct the expression of the CFTR G551D mutant and of the YFP reporter. Cells are incubated at 37° C., 5% CO2 for 24 hours so as to allow for sufficient expression of the CFTR protein.
(§1) The I^−-induced quenching of fluorescence is recorded immediately after injection of I^− for 7 seconds. The capacity of a compound to increase the channel opening is directly correlated with the decrease in fluorescence, and is expressed as (1−(fluorescence after 7 seconds (F)/fluorescence before injection (F0))) and an EC50 can be derived from a (1−F/F0) vs compound concentration plot.

[2] = biological target: T2, CFTR ΔF508 mutant (Homo sapiens, UniProt P13569, DEL508-508); assay: YFP-halide influx assay for the CFTR-ΔF508 mutation (384 well, CFBE41o- cells, FDSS/μCell); type: cell-based; conditions: forskolin 10.67 μM, fluorescence after 36 seconds, read-out: EC50 measured by YFP-halide influx assay for the CFTR-ΔF508
T2 construct: expressed in transfected cells; host or cells: CFBE41o- (adenoviral transduction)
Source text: 6.2. YFP-Halide Influx Assay for the CFTR-ΔF508 Mutation
The YFP halide influx assay measures the functionality of the cystic fibrosis Transmembrane Conductance regulator (CFTR) channels in the cystic fibrosis bronchial epithelium cell line CFBE41o-. The assay is used to evaluate the capacity of compounds to increase the open probability of existing CFTR channels in the membrane. It makes use of the observation that the yellow fluorescent protein (YFP) variant YFP H148Q, I152L has its fluorescence substantially quenched by halide ions like Cl— and I— (Galietta et al., 2001; Nagai et al., 2002).
For this purpose, CFBE410-cells are seeded in 384 well plates (3000 CFBE cells/well). One day after seeding, the CFBE cells are transduced with adenoviral vectors that direct the expression of the CFTR ΔF508 mutant and of the YFP reporter. Cells are incubated at 27° C., 5% CO2 for 24 hours so as to allow for the proper folding and migration to the membrane of the CFTR channel or treated with a CFTR modulator during 24 h at 37° C.
as §1, with “I— induced” for “I^−-induced”, “recorded […]” for “recorded”, “I—” for “I^−”, “2 min on an FDSS/μCell (Hamamatsu).” for “7 seconds.”, “36” for “7”

T1 sequence (P13569 whole entry G551D): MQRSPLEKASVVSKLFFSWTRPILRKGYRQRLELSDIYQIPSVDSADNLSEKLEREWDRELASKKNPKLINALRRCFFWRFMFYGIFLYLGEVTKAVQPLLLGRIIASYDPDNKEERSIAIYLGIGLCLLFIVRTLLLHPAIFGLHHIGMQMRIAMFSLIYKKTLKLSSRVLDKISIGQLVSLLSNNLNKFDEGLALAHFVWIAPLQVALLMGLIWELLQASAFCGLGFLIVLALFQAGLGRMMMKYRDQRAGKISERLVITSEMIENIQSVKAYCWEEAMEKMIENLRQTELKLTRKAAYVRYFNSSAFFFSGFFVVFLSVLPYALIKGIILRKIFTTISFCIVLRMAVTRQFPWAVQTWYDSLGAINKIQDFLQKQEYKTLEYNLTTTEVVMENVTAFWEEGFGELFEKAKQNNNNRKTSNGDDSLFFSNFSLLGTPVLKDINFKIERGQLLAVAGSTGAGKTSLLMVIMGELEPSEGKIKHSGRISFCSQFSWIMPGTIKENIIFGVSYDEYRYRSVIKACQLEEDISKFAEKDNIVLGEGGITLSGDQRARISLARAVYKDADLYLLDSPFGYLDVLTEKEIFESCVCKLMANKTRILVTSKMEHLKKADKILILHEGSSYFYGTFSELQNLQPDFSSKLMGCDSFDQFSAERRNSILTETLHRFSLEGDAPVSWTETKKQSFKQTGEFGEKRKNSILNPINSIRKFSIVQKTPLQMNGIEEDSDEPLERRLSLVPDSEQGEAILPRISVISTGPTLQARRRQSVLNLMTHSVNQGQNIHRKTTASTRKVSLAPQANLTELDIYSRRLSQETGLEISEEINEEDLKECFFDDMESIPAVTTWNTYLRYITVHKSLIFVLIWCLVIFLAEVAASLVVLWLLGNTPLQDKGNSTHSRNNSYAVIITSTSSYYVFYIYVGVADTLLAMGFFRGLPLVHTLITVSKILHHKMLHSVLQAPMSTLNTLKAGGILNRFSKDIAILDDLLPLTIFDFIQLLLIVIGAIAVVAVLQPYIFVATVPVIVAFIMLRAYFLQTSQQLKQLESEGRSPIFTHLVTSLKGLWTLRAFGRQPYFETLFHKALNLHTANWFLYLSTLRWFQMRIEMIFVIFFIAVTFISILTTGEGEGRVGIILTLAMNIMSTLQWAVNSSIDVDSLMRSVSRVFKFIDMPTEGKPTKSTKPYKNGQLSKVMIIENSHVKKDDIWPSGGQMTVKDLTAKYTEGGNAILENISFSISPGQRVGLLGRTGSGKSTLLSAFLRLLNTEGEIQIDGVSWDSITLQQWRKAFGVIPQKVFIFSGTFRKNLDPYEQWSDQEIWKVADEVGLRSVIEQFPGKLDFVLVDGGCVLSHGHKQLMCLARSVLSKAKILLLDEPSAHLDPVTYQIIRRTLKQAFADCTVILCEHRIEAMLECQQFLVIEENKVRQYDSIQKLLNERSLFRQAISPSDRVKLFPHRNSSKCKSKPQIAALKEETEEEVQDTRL
T2 sequence (P13569 with tags, fused parts or gaps DEL508-508): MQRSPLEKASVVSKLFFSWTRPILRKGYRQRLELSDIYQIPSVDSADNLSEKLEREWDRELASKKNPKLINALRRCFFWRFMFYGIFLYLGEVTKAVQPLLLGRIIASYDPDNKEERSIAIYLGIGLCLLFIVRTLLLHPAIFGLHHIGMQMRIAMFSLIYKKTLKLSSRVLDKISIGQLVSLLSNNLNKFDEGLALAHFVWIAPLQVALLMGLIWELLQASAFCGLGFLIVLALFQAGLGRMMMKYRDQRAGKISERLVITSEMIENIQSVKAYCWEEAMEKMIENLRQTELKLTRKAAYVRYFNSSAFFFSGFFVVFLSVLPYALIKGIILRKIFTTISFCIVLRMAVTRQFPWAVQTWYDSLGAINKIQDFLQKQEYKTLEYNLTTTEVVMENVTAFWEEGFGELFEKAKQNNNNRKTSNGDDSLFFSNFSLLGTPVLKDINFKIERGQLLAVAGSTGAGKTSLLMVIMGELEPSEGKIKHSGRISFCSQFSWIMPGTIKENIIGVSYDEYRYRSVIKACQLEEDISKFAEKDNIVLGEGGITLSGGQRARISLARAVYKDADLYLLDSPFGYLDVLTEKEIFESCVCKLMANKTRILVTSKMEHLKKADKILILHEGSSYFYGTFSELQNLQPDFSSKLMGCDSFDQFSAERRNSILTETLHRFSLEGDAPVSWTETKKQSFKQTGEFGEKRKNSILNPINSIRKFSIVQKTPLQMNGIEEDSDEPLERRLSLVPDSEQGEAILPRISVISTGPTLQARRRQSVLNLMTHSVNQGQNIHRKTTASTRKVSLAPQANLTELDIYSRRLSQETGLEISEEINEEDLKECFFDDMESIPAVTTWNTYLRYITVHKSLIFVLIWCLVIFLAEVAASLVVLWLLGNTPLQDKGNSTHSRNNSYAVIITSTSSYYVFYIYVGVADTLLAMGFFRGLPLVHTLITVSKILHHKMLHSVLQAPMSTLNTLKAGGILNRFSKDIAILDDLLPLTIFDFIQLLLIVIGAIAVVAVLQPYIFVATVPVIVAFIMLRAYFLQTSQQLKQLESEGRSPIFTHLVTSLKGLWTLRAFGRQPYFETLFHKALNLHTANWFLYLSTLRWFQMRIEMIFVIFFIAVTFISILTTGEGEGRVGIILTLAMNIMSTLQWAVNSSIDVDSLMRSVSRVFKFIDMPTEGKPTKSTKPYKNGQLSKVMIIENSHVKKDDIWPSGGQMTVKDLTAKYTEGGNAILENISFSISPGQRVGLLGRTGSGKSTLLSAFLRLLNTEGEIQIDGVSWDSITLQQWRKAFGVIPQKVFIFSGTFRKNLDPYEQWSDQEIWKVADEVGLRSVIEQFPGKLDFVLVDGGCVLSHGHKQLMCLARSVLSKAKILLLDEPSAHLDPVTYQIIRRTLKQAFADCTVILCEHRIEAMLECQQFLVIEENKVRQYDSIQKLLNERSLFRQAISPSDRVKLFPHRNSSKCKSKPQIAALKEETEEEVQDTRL

## CC(C)C(CO)C(=O)Nc1sc2c(c1C(N)=O)CC(C)(C)OC2(C)C (stereo not shown) [Compound 74, 2-[[2-(hydroxymethyl)-3-methyl-butanoyl]amino]-5,5,7,7-tetramethyl-4H-thieno[2,3-c]pyran-3-carboxamide]
[1]
  EC50: 3330 nM
[2]
  EC50: 82.6 nM

## CC(O)C1(C(=O)Nc2sc3c(c2C(N)=O)CC(C)(C)OC3(C)C)CC1 (stereo not shown) [Compound 78, 2-[[1-[1-hydroxyethyl]cyclopropanecarbonyl]amino]-5,5,7,7-tetramethyl-4H-thieno[2,3-c]pyran-3-carboxamide]
[1]
  EC50: 3350 nM
[2]
  EC50: 6.39 nM

## CC(O)C1(C(=O)Nc2sc3c(c2C(N)=O)CC(C)(C)OC3(C)C)CC1 (stereo not shown) [Compound 79, 2-[[1-[1-hydroxyethyl]cyclopropanecarbonyl]amino]-5,5,7,7-tetramethyl-4H-thieno[2,3-c]pyran-3-carboxamide]
[1]
  EC50: 3330 nM
[2]
  EC50: 23.6 nM

## CC1(C)Cc2c(sc(NC(=O)C(C)(O)C(C)(C)C)c2C(N)=O)C(C)(C)O1 (stereo not shown) [Compound 81, 2-[(2-hydroxy-2,3,3-trimethyl-butanoyl)amino]-5,5,7,7-tetramethyl-4H-thieno[2,3-c]pyran-3-carboxamide]
[1]
  EC50: 6660 nM
[2]
  EC50: 3.23 nM

## CC1(C)Cc2c(sc(NC(=O)C(CO)CC3CC3)c2C(N)=O)C(C)(C)O1 (stereo not shown) [Compound 84, 2-[[2-(cyclopropylmethyl)-3-hydroxy-propanoyl]amino]-5,5,7,7-tetramethyl-4H-thieno[2,3-c]pyran-3-carboxamide]
[1]
  EC50: 3330 nM
[2]
  EC50: 25.4 nM

## CC1(C)Cc2c(sc(NC(=O)C(CO)C(C)(C)C)c2C(N)=O)C(C)(C)O1 (stereo not shown) [Compound 85, 2-[[2-(hydroxymethyl)-3,3-dimethyl-butanoyl]amino]-5,5,7,7-tetramethyl-4H-thieno[2,3-c]pyran-3-carboxamide]
[1]
  EC50: 3330 nM
[2]
  EC50: 93.5 nM

## CC1(C)Cc2c(sc(NC(=O)c3n[nH]cc3CO)c2C(N)=O)C(C)(C)O1 [Compound 88, N-(3-carbamoyl-5,5,7,7-tetramethyl-4H-thieno[2,3-c]pyran-2-yl)-4-(hydroxymethyl)-1H-pyrazole-3-carboxamide]
[1]
  EC50: 1170 nM
[2]
  EC50: 145 nM

## CC1(C)Cc2c(sc(NC(=O)C(CO)C(C)(C)C)c2C(N)=O)C(C)(C)O1 (stereo not shown) [Compound 90, 2-[[2-(hydroxymethyl)-3,3-dimethyl-butanoyl]amino]-5,5,7,7-tetramethyl-4H-thieno[2,3-c]pyran-3-carboxamide]
[1]
  EC50: 3200 nM
[2]
  EC50: 120 nM

## CC1(C)Cc2c(sc(NC(=O)c3ccn(COP(=O)(O)O)n3)c2C(N)=O)C(C)(C)O1 [Compound 93, [3-[(3-carbamoyl-5,5,7,7-tetramethyl-4H-thieno[2,3-c]pyran-2-yl)carbamoyl]pyrazol-1-yl]methyl dihydrogen phosphate]
[1]
  EC50: 3330 nM
[2]
  EC50: 479 nM

## CC1(C)Cc2c(sc(NC(=O)[C@]3(CO)CC3(C)C)c2C(N)=O)C(C)(C)O1 [Compound 99, 2-[[(1R)-1-(hydroxymethyl)-2,2-dimethyl-cyclopropanecarbonyl]amino]-5,5,7,7-tetramethyl-4H-thieno[2,3-c]pyran-3-carboxamide]
[1]
  EC50: 1340 nM
[2]
  EC50: 28.3 nM

## COCCOc1c[nH]nc1C(=O)Nc1sc2c(c1C(N)=O)CC(C)(C)OC2(C)C [Compound 100, N-(3-carbamoyl-5,5,7,7-tetramethyl-4H-thieno[2,3-c]pyran-2-yl)-4-(2-methoxyethoxy)-1H-pyrazole-3-carboxamide]
[1]
  EC50: 2860 nM
[2]
  EC50: 190 nM

## CC1(C)Cc2c(sc(NC(=O)c3ccccc3OC(F)F)c2C(N)=O)C(C)(C)O1 [Compound 113, 2-[[2-(difluoromethoxy)benzoyl]amino]-5,5,7,7-tetramethyl-4H-thieno[2,3-c]pyran-3-carboxamide]
[1]
  EC50: 2790 nM
[2]
  EC50: 77.5 nM

## CC1(C)Cc2c(sc(NC(=O)c3ccn(C(F)F)n3)c2C(N)=O)C(C)(C)O1 [Compound 114, N-(3-carbamoyl-5,5,7,7-tetramethyl-4H-thieno[2,3-c]pyran-2-yl)-1-(difluoromethyl)pyrazole-3-carboxamide]
[1]
  EC50: 1710 nM
[2]
  EC50: 40.9 nM

## CC1(C)Cc2c(sc(NC(=O)c3ccnn3C(F)F)c2C(N)=O)C(C)(C)O1 [Compound 115, N-(3-carbamoyl-5,5,7,7-tetramethyl-4H-thieno[2,3-c]pyran-2-yl)-2-(difluoromethyl)pyrazole-3-carboxamide]
[1]
  EC50: 586 nM
[2]
  EC50: 62.1 nM

## CC1(C)Cc2c(sc(NC(=O)c3nn(C(F)F)cc3Cl)c2C(N)=O)C(C)(C)O1 [Compound 116, N-(3-carbamoyl-5,5,7,7-tetramethyl-4H-thieno[2,3-c]pyran-2-yl)-4-chloro-1-(difluoromethyl)pyrazole-3-carboxamide]
[1]
  EC50: 1520 nM
[2]
  EC50: 88 nM

## Cn1cc(C(=O)Nc2sc3c(c2C(N)=O)CC(C)(C)OC3(C)C)c(C(F)F)n1 [Compound 117, N-(3-carbamoyl-5,5,7,7-tetramethyl-4H-thieno[2,3-c]pyran-2-yl)-3-(difluoromethyl)-1-methyl-pyrazole-4-carboxamide]
[1]
  EC50: 6660 nM
[2]
  EC50: 239 nM

## Cn1ccc(C(=O)Nc2sc3c(c2C(N)=O)CC(C)(C)OC3(C)C)n1 [Compound 119, N-(3-carbamoyl-5,5,7,7-tetramethyl-4H-thieno[2,3-c]pyran-2-yl)-1-methyl-pyrazole-3-carboxamide]
[1]
  EC50: 2170 nM
[2]
  EC50: 159 nM

## Cn1nccc1C(=O)Nc1sc2c(c1C(N)=O)CC(C)(C)OC2(C)C [Compound 120, N-(3-carbamoyl-5,5,7,7-tetramethyl-4H-thieno[2,3-c]pyran-2-yl)-2-methyl-pyrazole-3-carboxamide]
[1]
  EC50: 2410 nM
[2]
  EC50: 121 nM

## CC1(C)Cc2c(sc(NC(=O)c3cccc(C(F)F)c3)c2C(N)=O)C(C)(C)O1 [Compound 122, 2-[[3-(difluoromethyl)benzoyl]amino]-5,5,7,7-tetramethyl-4H-thieno[2,3-c]pyran-3-carboxamide]
[1]
  EC50: 2380 nM
[2]
  EC50: 41.7 nM

## CC1(C)Cc2c(sc(NC(=O)c3ccccc3C(F)F)c2C(N)=O)C(C)(C)O1 [Compound 123, 2-[[2-(difluoromethyl)benzoyl]amino]-5,5,7,7-tetramethyl-4H-thieno[2,3-c]pyran-3-carboxamide]
[1]
  EC50: 825 nM
[2]
  EC50: 87.9 nM

## CC1(C)Cc2c(sc(NC(=O)C3(C)CC(F)(F)C3)c2C(N)=O)C(C)(C)O1 [Compound 124, 2-[(3,3-difluoro-1-methyl-cyclobutanecarbonyl)amino]-5,5,7,7-tetramethyl-4H-thieno[2,3-c]pyran-3-carboxamide]
[1]
  EC50: 685 nM
[2]
  EC50: 40.6 nM

## Cc1nc(C(=O)Nc2sc3c(c2C(N)=O)CC(C)(C)OC3(C)C)co1 [Compound 125, N-(3-carbamoyl-5,5,7,7-tetramethyl-4H-thieno[2,3-c]pyran-2-yl)-2-methyl-oxazole-4-carboxamide]
[1]
  EC50: 3330 nM
[2]
  EC50: 194 nM

## CC1(C)Cc2c(sc(NC(=O)c3ccn(CC(F)F)n3)c2C(N)=O)C(C)(C)O1 [Compound 126, N-(3-carbamoyl-5,5,7,7-tetramethyl-4H-thieno[2,3-c]pyran-2-yl)-1-(2,2-difluoroethyl)pyrazole-3-carboxamide]
[1]
  EC50: 3330 nM
[2]
  EC50: 555 nM

## CC1(C)Cc2c(sc(NC(=O)c3cscn3)c2C(N)=O)C(C)(C)O1 [Compound 128, N-(3-carbamoyl-5,5,7,7-tetramethyl-4H-thieno[2,3-c]pyran-2-yl)thiazole-4-carboxamide]
[1]
  EC50: 878 nM
[2]
  EC50: 34.2 nM

## CC1(C)Cc2c(sc(NC(=O)c3cocn3)c2C(N)=O)C(C)(C)O1 [Compound 129, N-(3-carbamoyl-5,5,7,7-tetramethyl-4H-thieno[2,3-c]pyran-2-yl)oxazole-4-carboxamide]
[1]
  EC50: 2290 nM
[2]
  EC50: 77.3 nM

## CC1(C)Cc2c(sc(NC(=O)c3ccno3)c2C(N)=O)C(C)(C)O1 [Compound 133, N-(3-carbamoyl-5,5,7,7-tetramethyl-4H-thieno[2,3-c]pyran-2-yl)isoxazole-5-carboxamide]
[1]
  EC50: 3330 nM
[2]
  EC50: 552 nM
